Reference: patent publication US5362629A, “Detection of immunosuppressants” (President and Fellows of Harvard College, priority 1991, dated 1994)
“Also recorded” adds a separate entry of the source.

Columns and labels:
[1] = system: set of four target proteins (calcineurin-calmodulin) adsorbed on GFK-FK506; experiment: Competitive binding / elution of target proteins from glutathione-Sepharose-immobilized GFK-FK506; set-up: species or system bovine
Description: A competitive binding experiment was carried out with recombinant FKBP12 and cyclophilin A (Standaert et al., 1990, supra, Lui et al., 1990, Proc. Natl. Acad. Sci. 87:2304) and their respective drug complexes. After the set of four target proteins were adsorbed onto the glutathione Sepharose affinity matrix, elution was attempted with immunophilins, the drugs, or the immunophilin-drug complexes. The set of four proteins were eluted from glutathione-sepharoseimmobilized GFK-FK506 with both recombinant complexes. In contrast, these proteins were not eluted by free immunophilins or unbound drugs.
To further test the importance of divalent metal ions for interaction between immunophilin-drug complexes and target proteins, the adsorption experiment was performed in the presence of the Ca^2+ chelator EGTA.

[2] = system: proteins of Mr 61,000, 57,000, 17,000, and 15,000 from calf thymus (calcineurin A, calcineurin B, calmodulin); experiment: Glutathione Sepharose adsorption of target proteins from tissue extracts by immunophilin-drug affinity matrices; format: binding, bovine; settings: calf thymus extract; Ca2+ and Mg2+ in incubation buffer
Description: Several factors were taken into account in the design of the first glutathione-Sepharose adsorption experiment. […] In addition, in some experiments, a homobifunctional cross-linking reagent, dimethyl 3,3'-dithiobispropionimidate (DTBP) (Wang et al. 1974, J. Biol. Chem. 249:8005) was added to the incubation mixture to retain target proteins whose affinity for immunophilin or immunophilin-drug complex was not sufficient to withstand the washes following adsorption of the complex to the solid phase.
Adsorption of calcineurin-calmodulin with GFK-FK506 using glutathione Sepharose was performed as follows. Crude tissue extracts, fresh bovine calf brain, thymus, or spleen (Research 87, Revere, MA), were homogenized (1:3 W/V) in 20 mM Tris HCl (pH 6.8), 0.25 mM NaCl, 2 mM β-mercaptoethanal, 0.02% NaN3, 1 mM PMSF, and 5% glycerol. The homogenate was centrifuged at 8,000×g for 4 h. The supernatant was separated and the pellet was resuspended in an equal volume of the same buffer. Centrifugation at 8,000 ×g for 4 h gave a second supernatant. The two supernatants were mixed (1:1 v/v) and centrifuged at 30,000×g for 45 min. The supernatant was then filtered through a 0.45 μm filter and kept at 4° C. before use.
The crude tissue extracts were pre-incubated with glutathione Sepharose (about 1:100 to 1:200 dilution of the sepharose) at 4° C. for 1-3 h to remove the endogenous glutathione binding proteins, including glutathione S-transferases. […] After incubation at 4° C. on a nutator for 1.5 h, 25 μL of 50% (V/V) glutathione Sepharose in buffer A was added and incubation was continued for an additional 0.5 to 2 h. The Sepharose beads were precipitated by centrifugation on a microcentrifuge at 5,000×g for 2 min. The glutathione Sepharose beads were washed three times with 0.5 mL buffer A containing 0.2% Triton X-100. The washed glutathione Sepharose was then resuspended in 25 μL of 2× SDS sample buffer, heated in boiling water for 3 min, and centrifuged for 2 min. The supernatant was subjected to SDS-PAGE followed by silver staining. […]

calcineurin = molecular target: T1, calcineurin (Bos taurus, UniProt P48452+P63099); experiment: Calcineurin phosphatase assay with 32P-phosphopeptide (RII subunit) substrate; format: biochemical, bovine; settings: in the presence or absence of calmodulin; Ca2+
T1 construct: Bovine brain calcineurin and calmodulin were purchased from Sigma Chemical; purchased Sigma Chemical (St. Louis, Mo.); also a gift from Dr. Claude B. Klee; host or cells: bovine brain
T1 sequence (P63099 2-170 limits assumed, other chains not shown): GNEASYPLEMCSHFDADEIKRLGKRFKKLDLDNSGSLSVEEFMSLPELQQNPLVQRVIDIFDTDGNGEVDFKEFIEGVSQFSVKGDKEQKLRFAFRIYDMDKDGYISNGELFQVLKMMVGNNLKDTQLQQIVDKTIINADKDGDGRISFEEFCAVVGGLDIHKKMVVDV
Description: Calcineurin is known to be a Ca^2+, calmodulin-dependent protein phosphatase (Stewart et al., 1982, FEBS. Lett. 137:80). Using a phosphorylated peptide fragment from the regulatory subunit of cAMP-dependent kinase as a substrate, the phosphatase activity of the calcineurin was assayed in the presence of the immunophilins, the individual drugs, and their respective complexes with or without calmodulin.
Calcineurin phosphatase assays were carried out essentially as described previously (Manalan et al. 1983, Proc. Natl. Acad. Sci. USA 80:4291) with minor modifications. The substrate used was a synthetic peptide corresponding to the phosphorylation site of the RII subunit of cyclic AMP-dependent protein kinase […] (Sequence I.D. No. 1), which was phosphorylated with ^32 p-labeled ATP at the serine residue. The assay buffer consists of 40 mM TrisHCl (pH 7.5), 0.1 M NaCl, 6 mM MgCl2, 0.1 mM CaCl2, 0.1 mg/mL bovine serum albumin, and 0.5 mM dithiothreitol. The assay mixture (60 μl) contained 40 nM calcineurin, and 80 nM calmodulin (when present), and 2 μM phosphopeptide in addition to the assay buffer. […] Therefore, the drug solutions were prepared in DMSO as follows. DMSO stock solutions of the drugs were prepared (3000×final concentration) and then diluted 100×with the assay buffer. 2 μL was added to the incubation mixture giving a final concentration of DMSO of less than 0.04% in the final assay mixture. The incubations were carried out at 30° C. for 10 min before the reaction was stopped by addition of the stop solution (5% trichloroacetic acid, 0.1 M potassium phosphate) and loaded onto 0.5 ml Dowex AG 50W-X8 (200-800 mesh, Bio-Rad) columns. After the [^32 P]-inorganic phosphate was eluted from the column, it was mixed with 12 ml of ScintiVerse II (Fisher Scientific) and counted on a Beckman LS1801 Liquid Scintillation Systems. Bovine brain calcineurin and calmodulin were purchased from Sigma Chemical (St. Louis, Mo.). ^32 P-labeled phosphorylated peptide substrate, bovine brain calcineurin, and rabbit anti-calcineurin IgG were generous gifts from Dr. Claude B. Klee (National Cancer Institute, Department of Biochemistry). Goat-anti-rabbit IgG conjugated with alkaline phosphatase and the alkaline phosphatase substrates (BCIP and NBT) were obtained from Pierce (Rockford, ILL.). Glutathione Sepharose 4B was from Pharmacia LKB (Uppsala, Sweden). 506BD was prepared by Thomas J. Wandless and Patricia K. Somers in the Harvard laboratory.

[3] = molecular target: T2, calcineurin-Ca2+/calmodulin (Bos taurus, UniProt P48452+P63099); experiment: Calcineurin phosphatase assay with para-nitrophenyl phosphate; format: biochemical, bovine; settings: Ca2+ and calmodulin present
T2 construct: Bovine brain calcineurin and calmodulin were purchased from Sigma Chemical; purchased Sigma Chemical (St. Louis, Mo.); also a gift from Dr. Claude B. Klee; host or cells: bovine brain
Text: The small para-nitrophenyl phosphate reagent presumably interacts with calcineurin nearly exclusively via active site residues, whereas the phosphopeptide, which is comprised of a sequence derived from the phosphorylation site on the RII subunit of cyclic AMP-dependent protein kinase (a calcineurin substrate) (Blumenthal et al., 1986, J. Biol. Chem 261:8140), is presumed to make extensive contact with the enzyme.

[4] = system: T-cell receptor-mediated signaling pathway; settings: cited from earlier work

| Compound | elution of the four target proteins from the immobilized immunophilin-drug matrix [1] | retention/adsorption of the Mr 61,000, 57,000, 17,000 and 15,000 proteins by the affinity matrix [2] | effect on phosphatase activity of calcineurin towards the phosphopeptide substrate (calcineurin) | effect on phosphatase activity of calcineurin towards para-nitrophenyl phosphate [3] | concentration needed to interfere with T-cell receptor-mediated signaling, relative to CsA ([4]; lower concentrations than CsA) [fold] | inhibition of TCR-mediated signaling ([4]; previous observations) |
| --- | --- | --- | --- | --- | --- | --- |
| O=C(O)CN(CCOCCOCCN(CC(=O)O)CC(=O)O)CC(=O)O [EGTA] | able to effectively elute; also recorded: capable of eluting |  |  |  |  |  |
| C=CC[C@@H]1/C=C(\C)C[C@H](C)C[C@H](OC)[C@H]2O[C@@](O)(C(=O)C(=O)N3CCCC[C@H]3C(=O)O[C@H](/C(C)=C/[C@@H]3CC[C@@H](O)[C@H](OC)C3)[C@H](C)[C@@H](O)CC1=O)[C@H](C)C[C@@H]2OC [FK506] |  | do not retain | no effect | no effect | 100 |  |
| CO[C@H]1C[C@@H]2CC[C@@H](C)[C@@](O)(O2)C(=O)C(=O)N2CCCC[C@H]2C(=O)O[C@H]([C@H](C)C[C@@H]2CC[C@@H](O)[C@H](OC)C2)CC(=O)[C@H](C)/C=C(\C)[C@@H](O)[C@@H](OC)C(=O)[C@H](C)C[C@H](C)/C=C/C=C/C=C/1C [rapamycin] |  | do not retain | no effect | no effect |  | inhibits different, calcium-independent signaling pathways |
| FKBP12: recombinant human immunophilin binding FK506 and rapamycin |  | do not retain | no effect | no effect |  |  |
| cyclophilin A: recombinant human immunophilin which complexes with cyclosporine A |  |  | no effect | no effect |  |  |
